The target of one experiment is PfPM1 (Plasmodium falciparum, UniProt Q7KQM4). In words: biochemical.
Experiment [1] concerns cultured P. falciparum parasites. The settings on record: cited from earlier work.
Experiment [2] deals with naturally-occurring PfPM1. The settings on record: cited from earlier work.

Where a SMILES comes first, the peptide text is derived from it. [ ]: non-standard residue; d: D form. The star is where a group is joined. Sta = CC(C)C[C@H](N)[C@@H](O)CC(=O)O; Isovaleryl = CC(C)CC(=O)*

Sequence of PfPM1 (Q7KQM4 124-452): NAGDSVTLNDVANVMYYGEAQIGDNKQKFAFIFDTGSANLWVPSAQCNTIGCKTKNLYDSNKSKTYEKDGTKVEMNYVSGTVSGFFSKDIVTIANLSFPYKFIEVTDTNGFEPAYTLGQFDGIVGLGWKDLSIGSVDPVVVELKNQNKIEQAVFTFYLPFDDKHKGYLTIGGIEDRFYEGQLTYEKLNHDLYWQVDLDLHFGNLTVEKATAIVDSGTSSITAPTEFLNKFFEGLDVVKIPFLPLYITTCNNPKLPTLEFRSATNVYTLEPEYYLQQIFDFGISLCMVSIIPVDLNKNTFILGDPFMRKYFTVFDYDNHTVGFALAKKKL

For the molecule `CC(C)CC(=O)N[C@H](C(=O)N[C@H](C(=O)N[C@@H](CC(C)C)[C@@H](O)CC(=O)N[C@@H](C)C(=O)N[C@@H](CC(C)C)[C@@H](O)CC(=O)O)C(C)C)C(C)C` [pepstatin A] (Isovaleryl-VV[Sta]A[Sta]-OH), the results for the Ki (on PfPM1; in experiment [2]) were 1.4 ± 0.2 nM and 0.7 nM, respectively. Besides, the “killing of cultured P. falciparum parasites” value in experiment [1] was “kill cultured P. falciparum parasites”.

The values are drawn from article PMC2730762 (Biochemistry, 2009).
